In patent US7910593B2, “Water-soluble prodrugs” (Chugai Seiyaku Kabushiki Kaisha, priority 2004, dated 2011):
Counter-ions that a name gives are not always drawn. Like-named read-outs stand apart in the source and are kept apart here.

How the values were obtained:
[1] = Test Example 3: solubility in distilled water; format: physicochemical
Text: The solubility of the water-soluble prodrugs obtained in the Examples (compounds 1A to 8A) in distilled water was compared to the solubility of (9S)-9-ethyl-9-hydroxy-1-pentyl-1H,12H-pyrano[3″,4″:6′,7′]indolizino[1′,2′:6,5]pyrido[4,3,2-de]quinazoline-10,13 (9H,15H)-dione (representative compound in Patent document 2: reference compound 1).

[2] = tested on: human colon cancer cell line HCT116; experiment: Test Example 4: antitumor effect in HCT116 tumor-bearing nude mice; format: in vivo, BALB/c nude mice; conditions: once per week for three weeks
Protocol: Antitumor effects were determined for representative examples of the group of compounds of the present invention. Tumor-bearing mice were generated by subcutaneous transplantation of human colon cancer cell line HCT116 obtained from American Type Culture Collection (Virginia, USA) into the right flank of BALB/c nude mice purchased from Charles River Japan, and used for determination of antitumor effects.
After a one-week quarantine period, the purchased nude mice were subjected to subcutaneous transplantation of 5×10^6 HCT116 cells at their right flank. Mice with a tumor size reaching 200 mm^3 or so were subjected to the experiment.
The compounds were dissolved in 1 mM citric bufferes saline, pH 4, and administered intravenously. The administration was carried out once per week for three weeks, for a total of three administrations. The antitumor effect was determined as tumor growth inhibition (TGI) using the following equation. Tumor growth inhibition (TGI) (%)={(1−mean tumor volume change in the drug-treated group/mean tumor volume change in the control group)×100} The results are shown in Table 6.

[3] = Comparative Test Example 1: conversion of reference compound 2 in human sera; format: in vitro ADME; conditions: FIG. 6
Protocol: (§1) Compound 2A was incubated at 37° C. at a concentration of 50 μM in sera of humans, mice, monkeys, and dogs. Incubation was terminated at a given time (0, 30, 60, 120, and 360 minutes), and the samples were analyzed by HPLC after deproteinization treatments.
(§2) Conditions for the HPLC analysis are as follows: • HPLC conditions • Column: Develosil C30-UG-3, 3 μm, 50×4.6 mm I.D • Column Temperature: constant temperature at approximately 25° C. • Mobile phase: A: 10 mM phosphate buffer (pH4.7) • B: acetonitrile • /B (min): 90/10(0)→90/10(0.4)→40/60(6)→2/98(8)→90/10(9)→90/10(15)
(§3) Flow rate: 1.0 mL/min • Detection: photodiode array detector, detection wavelength 350 nm • Amount injected: 30 μL
(§4) Similar to Examination 1, the percent changes of (9S)-9-ethyl-9-(tryptophyl-γ-glutamyloxy)-1-pentyl-1H,12H-pyrano[3″,4″:6′,7′]indolizino[1′,2′:6,5]pyrido[4,3,2-de]quinazoline-10,13(9H,15H)-dione [representative compound (Q) in Patent document 1: reference compound 2] being converted in the lactone form and the carboxylate form over time in human and mouse sera were determined.

[4] = Comparative Test Example 1: conversion of reference compound 2 in mouse sera; format: in vitro ADME; conditions: FIG. 7
Protocol: as §1, §2, §3, §4

[5] = distilled water, read-out: Solubility in distilled water

SMILES: CCCCCN1C=Nc2cccc3nc4c(c1c23)Cn1c-4cc2c(c1=O)COC(=O)[C@@]2(CC)OC(=O)CN(C)CCNC.Cl [Compound 1A, (9S)-9-Ethyl-9-{[methyl-(2-methylamino-ethyl)-amino]-acetoxy}-1-pentyl-1H,12H-pyrano[3″,4″:6′,7′]indolizino[1′,2′:6,5]pyrido[4,3,2-de]quinazoline-10,13(9H,15H)-dione hydrochloride]
- solubility [1, 5]: > 10000 µg/mL

SMILES: CCCCCN1C=Nc2cccc3nc4c(c1c23)Cn1c-4cc2c(c1=O)COC(=O)[C@@]2(CC)OC(=O)CN(C)CCN.Cl [Compound 3A, (9S)-9-{[(2-Amino-ethyl)-methyl-amino]-acetoxy}-9-ethyl-1-pentyl-1H,12H-pyrano[3″,4″:6′,7′]indolizino[1′,2′:6,5]pyrido[4,3,2-de]quinazoline-10,13(9H,15H)-dione hydrochloride]
- solubility [1, 5]: > 10000 µg/mL

SMILES: CCCCCN1C=Nc2cccc3nc4c(c1c23)Cn1c-4cc2c(c1=O)COC(=O)[C@@]2(CC)OC(=O)CN(C)C(=O)CNC.Cl [Compound 4A, (9S)-9-Ethyl-9-(sarcosyl-sarcosyloxy)-1-pentyl-1H,12H-pyrano[3″,4″:6′,7′]indolizino[1′,2′:6,5]pyrido[4,3,2-de]quinazoline-10,13(9H,15H)-dione hydrochloride]
- solubility [1, 5]: > 10000 µg/mL

SMILES: CC[C@@]1(OC(=O)CN(C)C(=O)CN)C(=O)OCc2c1cc1n(c2=O)Cc2cc3ccccc3nc2-1.Cl [Compound 5A, (aminoacetyl-methyl-amino)-acetic acid (S)-4-ethyl-3,13-dioxo-3,4,12,13-tetrahydro-1H-2-oxa-6,12a-diaza-dibenzo[b,h]fluoren-4-yl ester hydrochloride]
- solubility [1, 5]: > 10000 µg/mL

SMILES: CCCCCN1C=Nc2cccc3nc4c(c1c23)Cn1c-4cc2c(c1=O)COC(=O)[C@@]2(CC)OC(=O)OCCS(=O)(=O)C[C@H](N)C(=O)OC [Compound 6A, (9S)-9-{2-[(R-2-Amino-2-methoxycarbonyl)ethanesulfonyl]ethoxycarbonyloxy}-9-ethyl-1-pentyl-1H,12H-pyrano[3″,4″:6′,7′]indolizino[1′,2′:6,5]pyrido[4,3,2-de]quinazoline-10,13(9H,15H)-dione trifluoroacetic acid salt]
- solubility [1, 5]: > 10000 µg/mL

SMILES: CCCCCN1C=Nc2cccc3nc4c(c1c23)Cn1c-4cc2c(c1=O)COC(=O)[C@@]2(CC)OC(=O)OCCS(=O)(=O)CCN.Cl [Compound 8A, (9S)-9-[2-(2-Aminoethanesulfonyl)ethoxycarbonyloxy]-9-ethyl-1-pentyl-1H,12H-pyrano[3″,4″: 6′,7′]indolizino[1′,2′:6,5]pyrido[4,3,2-de]quinazoline-10,13(9H,15H)-dione hydrochloride]
- solubility [1, 5]: > 10000 µg/mL
- TGI (%) on Day 21 ([2]; 0.9 mg/kg intravenously): 41%
- TGI (%) on Day 21 ([2]; 1.9 mg/kg intravenously): 53%
- TGI (%) on Day 21 ([2]; 3.75 mg/kg intravenously): 55%
- TGI (%) on Day 21 ([2]; 7.5 mg/kg intravenously): 61%
- TGI (%) on Day 21 ([2]; 15 mg/kg intravenously): 78%
- TGI (%) on Day 21 ([2]; 30 mg/kg intravenously): 96%
- TGI (%) on Day 21 ([2]; 60 mg/kg intravenously): 106%

SMILES: CCCCCN1C=Nc2cccc3nc4c(c1c23)Cn1c-4cc2c(c1=O)COC(=O)[C@]2(O)CC [Reference compound 1, (9S)-9-ethyl-9-hydroxy-1-pentyl-1H,12H-pyrano[3″,4″:6′,7′]indolizino[1′,2′:6,5]pyrido[4,3,2-de]quinazoline-10,13 (9H,15H)-dione, reference compound]
- solubility ([1]; water): < 10 µg/mL

SMILES: CCCCCN1C=Nc2cccc3nc4c(c1c23)Cn1c-4cc2c(c1=O)COC(=O)[C@@]2(CC)OC(=O)CC[C@H](NC(=O)[C@@H](N)Cc1c[nH]c2ccccc12)C(=O)O [reference compound 2, (9S)-9-ethyl-9-(tryptophyl-γ-glutamyloxy)-1-pentyl-1H,12H-pyrano[3″,4″:6′,7′]indolizino[1′,2′:6,5]pyrido[4,3,2-de]quinazoline-10,13(9H,15H)-dione]
- conversion rate and efficiency into the lactone form and the carboxylate form [3]: low
- conversion rate and efficiency into the lactone form and the carboxylate form [4]: low
